Key:
Rattus norvegicus [1] = species on record: Rattus norvegicus; experiment: Percent decrease in activity for the inhibition of [3H]naltrexone in rat brain homogenates in the presence of NaCl at dose of 10 nM compared with that of control (6070+/-75 cpm).; format: functional
Rattus norvegicus [2] = species on record: Rattus norvegicus; experiment: Percent decrease in activity for the inhibition of [3H]-Naltrexone in rat brain homogenates in the presence of standard at dose of 10 nM compared with that of control (4930+/-143 cpm).; format: functional
Rattus norvegicus [3] = species on record: Rattus norvegicus; experiment: The compound was tested in vitro for the inhibition of [3H]-Naltrexone in rat brain homogenates in the presence of NaCl at 10 nM dose.; format: functional
Rattus norvegicus [4] = species on record: Rattus norvegicus; experiment: The compound was tested in vitro for the inhibition of [3H]naltrexone in rat brain homogenates in the presence of MnCl2 at 10 nM dose
Rattus norvegicus [5] = species on record: Rattus norvegicus; experiment: Percent decrease in activity for the inhibition of [3H]naltrexone in rat brain homogenates in the presence of MnCl2 at dose of 10 nM compared with that of control (4080+/-138 cpm).; format: functional
Rattus norvegicus [6] = species on record: Rattus norvegicus; experiment: The compound was tested in vitro for the inhibition of [3H]naltrexone in rat brain homogenates in the presence of standard at 10 nM dose.; format: functional
Mus musculus = species on record: Mus musculus; experiment: Percent analgesia of compound was measured in mice by using tail-flick assay; format: functional
Rattus norvegicus [7] = species on record: Rattus norvegicus; experiment: Percent decrease in activity for the inhibition of [3H]naltrexone in rat brain homogenates in the presence of NaCl and MnCl2 at dose of 4 nM compared with that of control (5840+/-72 cpm).; format: functional
Rattus norvegicus [8] = species on record: Rattus norvegicus; experiment: The compound was tested in vitro for the inhibition of [3H]naltrexone in rat brain homogenates in the presence of NaCl and MnCl2 at 4 nM dose.; format: functional, organism-based
Rattus norvegicus [9] = species on record: Rattus norvegicus; experiment: Percent decrease in activity for the inhibition of [3H]naltrexone in rat brain homogenates in the presence of NaCl at dose of 4 nM compared with that of control (6070+/-75 cpm).; format: functional
Rattus norvegicus [10] = species on record: Rattus norvegicus; experiment: Percent decrease in activity for the inhibition of [3H]naltrexone in rat brain homogenates in the presence of standard at dose of 4 nM compared with that of control (4930+/-143 cpm).; format: functional
Rattus norvegicus [11] = species on record: Rattus norvegicus; experiment: The compound was tested in vitro for the inhibition of [3H]-Naltrexone in rat brain homogenates in the presence of MnCl2 at 10 nM dose.; format: functional
Rattus norvegicus [12] = species on record: Rattus norvegicus; experiment: The compound was tested in vitro for the inhibition of [3H]naltrexone in rat brain homogenates in the presence of NaCl and MnCl2 at 10 nM dose.; format: functional, organism-based
Rattus norvegicus [13] = species on record: Rattus norvegicus; experiment: The compound was tested in vitro for the inhibition of [3H]naltrexone in rat brain homogenates in the presence of standard at 4 nM dose.; format: functional
Rattus norvegicus [14] = species on record: Rattus norvegicus; experiment: Percent decrease in activity for the inhibition of [3H]naltrexone in rat brain homogenates in the presence of MnCl2 at dose of 4 nM compared with that of control (4080+/-138 cpm).; format: functional
Rattus norvegicus [15] = species on record: Rattus norvegicus; experiment: The compound was tested in vitro for the inhibition of [3H]-Naltrexone in rat brain homogenates in the presence of MnCl2 at 4 nM dose.; format: functional
Rattus norvegicus [16] = species on record: Rattus norvegicus; experiment: Percent decrease in activity for the inhibition of [3H]naltrexone in rat brain homogenates in the presence of NaCl and MnCl2 at dose of 10 nM compared with that of control (5840+/-72 cpm).; format: functional

SMILES	Decrease (Rattus norvegicus [1])	Decrease (Rattus norvegicus [2])	Binding activity (Rattus norvegicus [3])	Decrease (Rattus norvegicus [5])	Binding activity (Rattus norvegicus [6])	Analgesia (Mus musculus)	Decrease (Rattus norvegicus [9])	Decrease (Rattus norvegicus [10])	Binding activity (Rattus norvegicus [12])	Binding activity (Rattus norvegicus [13])	Decrease (Rattus norvegicus [16])	other results
C=CCN1CC[C@]23c4c5ccc(O)c4O[C@H]2/C(=N\N)CC[C@@]3(O)[C@H]1C5 [NALOXAZONE]	24%	11%	4640 c.p.m.	23%	4400 c.p.m.	0%						Binding activity (Rattus norvegicus [4]): 3140 c.p.m.
C=CCN1CC[C@]23c4c5ccc(O)c4O[C@H]2C(=O)CC[C@@]3(O)[C@H]1C5 [NALOXONE]						54%						
N/N=C1/CC[C@@]2(O)[C@H]3Cc4ccc(O)c5c4[C@@]2(CCN3CC2CC2)[C@H]1O5 [NALTREXAZONE]	64%	61%	2200 c.p.m.	62%	1910 c.p.m.	0%	39%	39%	2240 c.p.m.	2980 c.p.m.	62%	Decrease (Rattus norvegicus [7]): 40%; Binding activity (Rattus norvegicus [8]): 3480 c.p.m.; Binding activity (Rattus norvegicus [11]): 1550 c.p.m.; Decrease (Rattus norvegicus [14]): 38%; Binding activity (Rattus norvegicus [15]): 2570 c.p.m.
O=C1CC[C@@]2(O)[C@H]3Cc4ccc(O)c5c4[C@@]2(CCN3CC2CC2)[C@H]1O5 [NALTREXONE]						67%						
CN1CC[C@]23c4c5ccc(O)c4O[C@H]2/C(=N\N)CC[C@@]3(O)[C@H]1C5 [OXYMORPHAZONE]		24%	5520 c.p.m.		3750 c.p.m.	82%	5%	2%	4560 c.p.m.	4860 c.p.m.	22%	
CN1CC[C@]23c4c5ccc(O)c4O[C@H]2C(=O)CC[C@@]3(O)[C@H]1C5 [OXYMORPHONE]						17%						

From ChEMBL document CHEMBL1121457, “Long-acting opiate agonists and antagonists: 14-hydroxydihydromorphinone hydrazones” (1980)
